pIC50: −log10 of the molar value.
biological target: T1, C-C chemokine receptor type 2 (Homo sapiens, UniProt P41597); experiment: Antagonist activity at CCR2 receptor expressed in THP1 cells assessed as inhibition of MCP-1-induced chemotaxis
T1 sequence (P41597 whole entry): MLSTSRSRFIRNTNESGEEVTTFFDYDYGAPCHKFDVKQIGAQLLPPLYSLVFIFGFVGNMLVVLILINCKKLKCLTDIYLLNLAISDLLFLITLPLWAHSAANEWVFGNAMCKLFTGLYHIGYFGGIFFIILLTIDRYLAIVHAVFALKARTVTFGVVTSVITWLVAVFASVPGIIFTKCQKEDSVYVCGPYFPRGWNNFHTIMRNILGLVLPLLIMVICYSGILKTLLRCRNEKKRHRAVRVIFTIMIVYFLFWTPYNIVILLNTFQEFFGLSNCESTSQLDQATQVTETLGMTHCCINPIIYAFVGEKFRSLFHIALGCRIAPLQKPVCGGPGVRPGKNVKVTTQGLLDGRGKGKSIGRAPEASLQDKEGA

| pIC50 | Compound |
| --- | --- |
| 8.46 | O=C(/C=C/c1cc(F)c(F)c(F)c1)N1CCC([C@@H](CO)N2CCC(c3c[nH]c4ccccc34)CC2)CC1 |

biological target: T1, C-C chemokine receptor type 2; experiment: Binding affinity at human CCR2 receptor

| pIC50 | Compound |
| --- | --- |
| 8.62 | O=C(/C=C/c1cc(F)c(F)c(F)c1)N1CCC([C@@H](CO)N2CCC(c3c[nH]c4ccccc34)CC2)CC1 |
| 8.70 | CC(=O)Nc1ccc2[nH]cc(C3CCN(C(CO)C4CCN(C(=O)/C=C/c5cc(F)c(F)c(F)c5)CC4)CC3)c2c1 (configuration not stated) |
| 5.32 | CN(C)CC(C1CCN(C(=O)/C=C/c2cc(F)c(F)c(F)c2)CC1)N1CCC(c2c[nH]c3ccccc23)CC1 (configuration not stated) |
| 8.05 | O=C(/C=C/c1cccc(Br)c1)N1CCC(C(CO)N2CCC(c3c[nH]c4ccccc34)CC2)CC1 (configuration not stated) |
| 8.00 | O=C(/C=C/c1cc(F)c(F)c(F)c1)N1CCC([C@H](CO)N2CCC(c3c[nH]c4ccccc34)CC2)CC1 |
| 8.70 | O=C(/C=C/c1ccc(F)c(Br)c1)N1CCC(C(CO)N2CCC(c3c[nH]c4ccccc34)CC2)CC1 (configuration not stated) |
| 7.70 | COC(=O)c1ccc2[nH]cc(C3CCN(C(CO)C4CCN(C(=O)/C=C/c5cc(F)c(F)c(F)c5)CC4)CC3)c2c1 (configuration not stated) |
| 7.30 | COC(=O)c1ccc2[nH]cc(C3CCN(C(CO)C4CCN(C(=O)Nc5ccc(Cl)c(Cl)c5)CC4)CC3)c2c1 (configuration not stated) |
| 8.00 | O=C(O)c1ccc2[nH]cc(C3CCN(C(CO)C4CCN(C(=O)Nc5ccc(Cl)c(Cl)c5)CC4)CC3)c2c1 (configuration not stated) |
| 9.00 | Nc1ccc2[nH]cc(C3CCN(C(CO)C4CCN(C(=O)/C=C/c5cc(F)c(F)c(F)c5)CC4)CC3)c2c1 (configuration not stated) |
| 9.00 | O=C(/C=C/c1cc(F)c(F)c(F)c1)N1CCC(C(CO)N2CCC(c3c[nH]c4ccc(O)cc34)CC2)CC1 (configuration not stated) |
